Measured values reported in paper PMC10052035, “Virtual Screening, Structural Analysis, and Formation Thermodynamics of Carbamazepine Cocrystals” (Pharmaceutics, 2023).
Values belong to the compound of their own block, whether it stands above or below them.

What was measured:
[1] = Solubility of cocrystals and their constituents in organic solvents (shake-flask, HPLC); conditions: for solubility at 48 h: organic solvent or mixture, thermodynamic from solid
Description: For the [CBZ + 3AcAmBA] (1:1) cocrystal, methanol was used. For [CBZ + 4AcAmBA] (1:1), all the experiments were performed in acetonitrile. An excess of the solid was placed in an Eppendorf tube, and 2 mL of solvent was added. The resulting suspension was shaken in a ThermoMixer C (Eppendorf, Hamburg, Germany) at 800 rpm for 48 h at the specified temperature. Subsequently, the saturated solution was separated using a 0.22 μm PTEF filter, diluted, and analyzed using HPLC. The solid phases after the experiment were collected and characterized by PXRD. Each experiment was repeated three times.
The HPLC was performed on an LC-20 AD Shimadzu Prominence model (Shimadzu, Kyoto, Japan) equipped with a PDA detector and a Luna C-18 column (150 mm × 4.6 mm i.d., 5 μm particle size, and 100 Å pore size). The column temperature was set to 40 °C. To achieve the proper separation of the cocrystal components, different ratios of the mobile phase, consisting of acetonitrile and a 0.1% aqueous solution of trifluoroacetic acid (35:65 v/v), were used. The flow rate was 1.0 mL·min^−1, and the injection volume was 20 μL. The UV detection of carbamazepine, 2-acetamidobenzoic acid, 3-acetamidobenzoic acid, and 4-acetamidobenzoic acid was carried out at the wavelengths of 285 nm, 249 nm, 220 nm, and 266 nm, respectively.

[2] = design: method as in doi:10.1016/j.molliq.2021.118320; conditions: pH 2.0, 310.2 K; value belongs to the coformer of the cocrystal named in the row; ref [103]; cited from earlier work
[3] = format: physicochemical
Description: The saturation shake-flask method was used to measure the aqueous solubility of the CBZ cocrystals in a pH 2.0 buffer solution at the eutectic point, where drug and cocrystal are in equilibrium with the solution. The eutectic point between the cocrystal and the drug was reached by suspending 80 mg of the cocrystal and 30 mg of CBZ in 2 mL of the buffer solution. The obtained suspension was stirred continuously for 72 h at 37.0 ± 0.1 °C. After equilibration, the final pH of the solution was measured. The suspension was diluted with the mobile phase after being filtered through a […] PTEF filter. Concentrations of compounds were analyzed by HPLC. The solid phases after the experiment were characterized by PXRD.
The column temperature was set to 40 °C.

[4] = Cocrystal formation thermodynamics from solubility data (Kf, ΔformG, ΔformH, ΔformS); format: physicochemical; conditions: for ΔformH: van't Hoff, 293.15-313.15 K
Description: It is known that the relative stability of a cocrystal with respect to a physical mixture of the parent constituents at a given temperature can be quantitatively expressed in terms of the free-energy change, ΔformG, of the cocrystallization reaction. Analyzing the temperature dependence of the Gibbs formation energy can provide further information on the enthalpy and entropy contributions to the driving force of the process as well as help to estimate the thermodynamic transition temperature, which determines the stability domains of a cocrystal and its individual constituents. The experimental assessment of ΔformG is based on solubility data for the starting molecules and the corresponding cocrystal in the same solvent at a predetermined temperature using the equation below:(3) ΔformG=−RTlnap,Ax×ap,By/acc,Ax×acc,By=−RTlnap,Ax×ap,By/Ksp=−RTlnKf, where ap,A and ap,B represent the activities of pure A and B compounds in a saturated solution; acc,A and acc,B are the activities of the cocrystal components in a solution, in equilibrium with pure cocrystal; Ksp is the solubility product of a cocrystal; T is the temperature; x and y are the stoichiometric coefficients; and Kf is an equilibrium constant at the experimental temperature.
Using the van’t Hoff expression, the enthalpy of the cocrystallization process, ΔformH, may be estimated by evaluating the Kf values at various temperatures (assuming that ΔformH is a constant within the selected temperature range):(4) dlnKf/d(1/T)=−ΔformH/R
The entropy of cocrystal formation, ΔformS, can be estimated from (5) ΔformS=ΔformH−ΔformG/T
Even though the activities in Equation (3) are usually approximated by the corresponding molar concentration while neglecting the activity coefficients, a more valid approximation implies that the activity coefficients for the two solute species are constant along the cocrystal solubility line and equal to the activity coefficients of the pure components in the saturated solutions in the same solvent and temperature. […] Table S5 contains the solubility values of CBZ, coformers, and the CBZ cocrystals with emodin, paeonol, nicotinamide, and glutaric acid in various organic solvents.

[5] = acetonitrile, 293.15 K, value is C∙10^2
[6] = acetonitrile, 298.15 K, value is C∙10^2
[7] = acetonitrile, 303.15 K, value is C∙10^2
[8] = acetonitrile, 308.15 K, value is C∙10^2
[9] = acetonitrile, 313.15 K, value is C∙10^2
[10] = 298.2K, listed as [CBZ+4AcAmBA] (1:1)

- solubility ratio Cp,CBZ/Cp,coformer ([1]; 48 h): 14.1
- solubility at 48 h ([1]; acetonitrile, 20 °C): 10.1 ± 0.1 mM
- solubility at 48 h ([1]; acetonitrile, 25 °C): 11.45 ± 0.05 mM
- solubility at 48 h ([1]; acetonitrile, 30 °C): 12.8 ± 0.07 mM
- solubility at 48 h ([1]; acetonitrile, 35 °C): 14.73 ± 0.07 mM
- solubility at 48 h ([1]; acetonitrile, 40 °C): 16.6 ± 0.3 mM
- Cp∙10^2, solubility of pure component [1, 5]: 1.010±0.010 mol/l
SMILES: CC(=O)Nc1ccc(C(=O)O)cc1 [Cocrystal 4AcAmBA, 4-acetamidobenzoic acid]
- S0(CF), intrinsic solubility of coformer [2]: 4.6 mM

SMILES: CC(=O)Nc1ccccc1C(=O)O [Cocrystal 2AcAmBA, 2-acetamidobenzoic acid]
- solubility ratio Cp,CBZ/Cp,coformer ([1]; Acetonitrile, Table S6): 5.7
- solubility at 48 h ([1]; acetonitrile, 20 °C): 25 ± 0.8 mM
- S0(CF), intrinsic solubility of coformer [2]: 11.5 mM

SMILES: CC(=O)Nc1ccc(C(=O)O)cc1.NC(=O)N1c2ccccc2C=Cc2ccccc21 [[CBZ + 4AcAmBA] (1:1)]
- Ccc,4AcAmBA∙10^2, coformer concentration in equilibrium with cocrystal [1, 5]: 0.880±0.016 mol/l
- Ccc,CBZ∙10^2, CBZ concentration in equilibrium with cocrystal [1, 5]: 0.875±0.014 mol/l
- Ccc,4AcAmBA∙10^2, coformer concentration in equilibrium with cocrystal [1, 6]: 1.046±0.010 mol/l
- Ccc,CBZ∙10^2, CBZ concentration in equilibrium with cocrystal [1, 6]: 1.013±0.015 mol/l
- Ccc,4AcAmBA∙10^2, coformer concentration in equilibrium with cocrystal [1, 7]: 1.222±0.017 mol/l
- Ccc,CBZ∙10^2, CBZ concentration in equilibrium with cocrystal [1, 7]: 1.198±0.007 mol/l
- Ccc,4AcAmBA∙10^2, coformer concentration in equilibrium with cocrystal [1, 8]: 1.472±0.008 mol/l
- Ccc,CBZ∙10^2, CBZ concentration in equilibrium with cocrystal [1, 8]: 1.428±0.009 mol/l
- Ccc,4AcAmBA∙10^2, coformer concentration in equilibrium with cocrystal [1, 9]: 1.707±0.030 mol/l
- Ccc,CBZ∙10^2, CBZ concentration in equilibrium with cocrystal [1, 9]: 1.684±0.022 mol/l
- Scc, solubility of the cocrystal ([3]; pH 2): (0.80 ± 0.02)·10^−3 Mol·L^−1
- [CF]eu, eutectic concentration of coformer ([3]; pH 2.0, 310.2 K, eutectic point): (6.4 ± 0.2)·10^−4 Mol·L^−1
- [CBZ]eu, eutectic concentration of CBZ ([3]; pH 2.0, 310.2 K, eutectic point (drug and cocrystal in equilibrium with solution)): (1.00 ± 0.05)·10^−3 Mol·L^−1
- Keu, eutectic constant ([3]; pH 2.0, 310.2 K, Keu = [CF]eu/[CBZ]eu): 0.64 ± 0.04
- T·ΔformS ([4]; 298.2K): -0.574 ± 0.14 kcal/mol
- lnKf ([4]; 298.2K): 2.86 ± 0.03
- ΔformG ([4]; 298.2K): -1.69 ± 0.019 kcal/mol
- T·ΔformS [4, 10]: -0.574 ± 0.14 kcal/mol
- ΔformG [4, 10]: -1.69 ± 0.019 kcal/mol
- ΔformH ([4]; 298.2K): -2.27 ± 0.14 kcal/mol
- ΔformH [4, 10]: -2.27 ± 0.14 kcal/mol
- lnKf ([4]; acetonitrile, 293.15 K): 2.93±0.04
- ∆formG ([4]; acetonitrile, 293.15 K): -1.7 ± 0.022 kcal/mol
- lnKf ([4]; acetonitrile, 298.15 K): 2.86±0.03
- ∆formG ([4]; acetonitrile, 298.15 K): -1.69 ± 0.019 kcal/mol
- lnKf ([4]; acetonitrile, 303.15 K): 2.82±0.03
- ∆formG ([4]; acetonitrile, 303.15 K): -1.7 ± 0.017 kcal/mol
- lnKf ([4]; acetonitrile, 308.15 K): 2.75±0.02
- ∆formG ([4]; acetonitrile, 308.15 K): -1.68 ± 0.012 kcal/mol
- lnKf ([4]; acetonitrile, 313.15 K): 2.67±0.03
- ∆formG ([4]; acetonitrile, 313.15 K): -1.66 ± 0.019 kcal/mol
